Laboratory results as given in patent US8933071B2, “Dimethyl fasudil for inducing polyploidization of megakaryocytes and for treating blood and bone marrow diseases and disorders” (Northwestern University, priority 2008, dated 2015).

Tested on: CD41+ megakaryocyte fraction
Assay: Polyploidization of primary human megakaryocytes (CD34+ cells cultured with TPO), CD41+ fraction
Format: cell-based
Settings: CD34+ cells cultured with TPO 12 days, compound added after 9 days
Description: FIG. 4 illustrates that DMF induces polyploidization of normal human megakaryocytes and that its activity is restricted to the CD41+ population. Human CD34+ cells were cultured with TPO for 12 days and then fixed and stained with DAPI. DMSO or DMF were added to the culture after 9 days. DNA content was then assessed by flow cytometry. Numbers above the bar indicate % of cells ≧8N.
In collaboration with the Broad Institute, a high throughput screen for small molecules was conducted to identify small molecules that preferentially induce polyploidization or differentiation of megakaryocytes. We screened 10,000 compounds from the Broad's extensive collection of small molecules (including known bioactives, kinase and HDAC inhibitors, and natural products) to identify inducers of megakaryocyte polyploidization. The screen was performed in the following manner: 1) 4,000 CMK (human megakaryocytic leukemia) cells were plated into each well of a 384-well plate, 2) 100 n1 of compounds (yielding a final concentration of 10 μM) were pinned into the wells, 3) plates were incubated at 37° C. for 72 hours, 4) cells were fixed and stained with Hoescht, and 5) plates were imaged using an ImageXpressMICRO high content imager with 20× objective. Nine images per well were collected. 6) Data were analyzed using both MetaXpress software and “Cell Profiler,” software designed at MIT and the Broad Institute. […]

With dimethylfasudil [DMF] the “polyploidization of primary human megakaryocytes” value was “potently induced polyploidization”.
